{"source": "patent US12226409B2", "about": "“Treatment of hepatocellular carcinoma” (Eisai R&D Management Co., Ltd., priority 2017, dated 2025)", "key": {"[1]": {"experiment": "Phase 1 study of lenvatinib in HCC, plasma concentration", "type": "in vivo, human", "details": "HCC patients 12 mg per day vs solid tumor patients 25 mg per day"}, "[2]": {"tested_on": "patients with unresectable HCC", "experiment": "Quality of life, EORTC QLQ-C30 and QLQ-HCC18 questionnaires", "type": "in vivo, human", "details": "role functioning, pain, diarrhea (QLQ-C30); nutrition, body image (QLQ-HCC18)", "description": "The primary endpoint was overall survival.\nTumors were evaluated in accordance with mRECIST (Lencioni R., Semin Liver Dis., 30(1):52-60, 2010); RECIST 1.1 was applied for nonhepatic lesions (Eisenhauer, Eur J Cancer, 45(2):228-47, 2009). The liver was examined with computed tomography or magnetic resonance imaging was performed using a triphasic scanning technique. Assessments were performed every 8 weeks until disease progression. Quality of life questionnaires were administered at baseline, on day 1 of each subsequent treatment cycle, and at the off-treatment visit."}, "[3]": {"tested_on": "unresectable hepatocellular carcinoma (HCC)", "experiment": "REFLECT study, efficacy per independent review", "type": "in vivo, human", "description": "The efficacy of LENVIMA was evaluated in a randomized, open-label, multicenter, international study (REFLECT; […]) conducted in patients with previously untreated unresectable hepatocellular carcinoma (HCC)."}, "CYP1A2": {"biological_target": "T1, CYP1A2 (Homo sapiens, UniProt P05177)", "T1 sequence (P05177 1-516)": "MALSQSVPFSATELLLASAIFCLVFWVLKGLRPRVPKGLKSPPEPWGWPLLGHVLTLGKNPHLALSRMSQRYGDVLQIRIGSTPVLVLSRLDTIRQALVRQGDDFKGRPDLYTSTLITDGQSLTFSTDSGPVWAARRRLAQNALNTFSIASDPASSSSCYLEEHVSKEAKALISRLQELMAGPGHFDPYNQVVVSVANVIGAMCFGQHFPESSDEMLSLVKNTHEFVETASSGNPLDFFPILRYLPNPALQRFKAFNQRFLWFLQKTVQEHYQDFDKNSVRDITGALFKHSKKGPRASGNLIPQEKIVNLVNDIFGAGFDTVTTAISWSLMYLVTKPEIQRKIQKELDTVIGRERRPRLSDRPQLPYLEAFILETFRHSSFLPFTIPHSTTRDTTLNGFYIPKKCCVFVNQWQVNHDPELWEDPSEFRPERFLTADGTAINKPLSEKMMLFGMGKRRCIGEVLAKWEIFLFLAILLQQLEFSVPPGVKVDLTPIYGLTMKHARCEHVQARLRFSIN", "experiment": "In vitro CYP inhibition", "type": "in vitro ADME"}}}
{"smiles": "COc1cc2nccc(Oc3ccc(NC(=O)NC4CC4)c(Cl)c3)c2cc1C(N)=O", "note": "[Lenvatinib, 4-(3-chloro-4(cyclopropylaminocarbonyl)aminophenoxy)-7-methoxy-6-quinolinecarboxamide]", "values": [{"measurement": "lenvatinib plasma concentration at 24 hours", "setting": "[1]", "value": "similar"}, {"measurement": "time to clinically meaningful deterioration of quality of life", "setting": "[2]", "value": "clinically meaningful delay in deterioration"}, {"measurement": "Median OS", "setting": "[3]; in vivo", "value": 13.6, "unit": "months"}, {"measurement": "Median PFS", "setting": "[3]; mRECIST, independent review", "value": 7.3, "unit": "months"}, {"measurement": "Objective response rate", "setting": "[3]; mRECIST, independent review", "value": 41, "unit": "%"}, {"measurement": "inhibition of CYP1A2", "setting": "CYP1A2", "value": "inhibits"}]}
